ChEMBL document CHEMBL1201862, “PubChem BioAssay data set” (2004)
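Tested at 5 concentrations; 48 h exposure; 96-well plates; endpoints linearly interpolated, else capped at highest concentration. The concentration for 50% growth inhibition is given as GI50.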 The source made the active and inactive calls. Cut-off read from the data, not from the text of the source: active = GI50 up to about 1.1 µM and inactive = higher.

What was measured:
Assay in all cases: growth of human tumour cells (NCI), 48 h
M14 = test system: M14
SN12C = test system: SN12C
RPMI-8226 = test system: RPMI-8226
MDA-MB-435 = test system: MDA-MB-435
NCI-H23 = test system: NCI-H23
NCI-H460 = test system: NCI-H460
MOLT-4 = test system: MOLT-4
A498 = test system: A498
T47D = test system: T47D
KM12 = test system: KM12
SR = test system: SR
OVCAR-5 = test system: OVCAR-5
MDA-MB-231 = test system: MDA-MB-231
SW-620 = test system: SW-620
IGROV-1 = test system: IGROV-1
SNB-19 = test system: SNB-19
EKVX = test system: EKVX
LOX IMVI = test system: LOX IMVI
NCI/ADR-RES = test system: NCI/ADR-RES
HCC 2998 = test system: HCC 2998
UO-31 = test system: UO-31
ACHN = test system: ACHN
HOP-92 = test system: HOP-92
HOP-62 = test system: HOP-62
U-251 = test system: U-251
CAKI-1 = test system: CAKI-1
SF-539 = test system: SF-539
TK-10 = test system: TK-10
SK-MEL-5 = test system: SK-MEL-5
MCF7 = test system: MCF7
SF-268 = test system: SF-268
SK-OV-3 = test system: SK-OV-3
786-0 = test system: 786-0
SF-295 = test system: SF-295
CCRF-CEM = test system: CCRF-CEM
BT-549 = test system: BT-549
COLO 205 = test system: COLO 205
Malme-3M = test system: Malme-3M
OVCAR-3 = test system: OVCAR-3
OVCAR-8 = test system: OVCAR-8
DU-145 = test system: DU-145
NCI-H226 = test system: NCI-H226
MDA-N = test system: MDA-N
Hs-578T = test system: Hs-578T
PC-3 = test system: PC-3
HT-29 = test system: HT-29
SK-MEL-28 = test system: SK-MEL-28
HL-60 = test system: HL-60
A549 = test system: A549
UACC-257 = test system: UACC-257
HCT-116 = test system: HCT-116
HCT-15 = test system: HCT-15
SNB-75 = test system: SNB-75
UACC-62 = test system: UACC-62
NCI-H522 = test system: NCI-H522
RXF 393 = test system: RXF 393
K562 = test system: K562
OVCAR-4 = test system: OVCAR-4
SK-MEL-2 = test system: SK-MEL-2

## COc1cccc(/C=C2\S/C(=N/Nc3nc(-c4ccc([N+](=O)[O-])cc4)cs3)NC2=O)c1O
M14
  GI50: 17 µM (inactive)
SN12C
  GI50: 22.1 µM (inactive)
RPMI-8226
  GI50: 10.4 µM (inactive)
MDA-MB-435
  GI50: 19.5 µM (inactive)
NCI-H23
  GI50: 11.7 µM (inactive)
NCI-H460
  GI50: 12.6 µM (inactive)
MOLT-4
  GI50: 22.1 µM (inactive)
A498
  GI50: 23.4 µM (inactive)
T47D
  GI50: 4.66 µM (inactive)
KM12
  GI50: 13.2 µM (inactive)
SR
  GI50: 12 µM (inactive)
OVCAR-5
  GI50: 25.3 µM (inactive)
MDA-MB-231
  GI50: 18.4 µM (inactive)
SW-620
  GI50: 19.3 µM (inactive)
IGROV-1
  GI50: 11.3 µM (inactive)
SNB-19
  GI50: 5.19 µM (inactive)
EKVX
  GI50: 17.4 µM (inactive)
LOX IMVI
  GI50: 3.25 µM (inactive)
NCI/ADR-RES
  GI50: 17.9 µM (inactive)
HCC 2998
  GI50: 17.5 µM (inactive)
UO-31
  GI50: 12.5 µM (inactive)
ACHN
  GI50: 17.3 µM (inactive)
HOP-92
  GI50: 10.3 µM (inactive)
HOP-62
  GI50: 15.3 µM (inactive)
U-251
  GI50: 1.8 µM (inactive)
CAKI-1
  GI50: 25 µM (inactive)
SF-539
  GI50: 7.82 µM (inactive)
TK-10
  GI50: 20.7 µM (inactive)
SK-MEL-5
  GI50: 12.2 µM (inactive)
MCF7
  GI50: 16.6 µM (inactive)
SF-268
  GI50: 5 µM (inactive)
SK-OV-3
  GI50: 26.9 µM (inactive)
786-0
  GI50: 19.9 µM (inactive)
SF-295
  GI50: 16.9 µM (inactive)
CCRF-CEM
  GI50: 9.89 µM (inactive)
BT-549
  GI50: 4.23 µM (inactive)
COLO 205
  GI50: 16.4 µM (inactive)
Malme-3M
  GI50: 20.5 µM (inactive)
OVCAR-3
  GI50: 15 µM (inactive)
OVCAR-8
  GI50: 13.6 µM (inactive)
DU-145
  GI50: 21.9 µM (inactive)
NCI-H226
  GI50: 14.9 µM (inactive)
MDA-N
  GI50: 22.2 µM (inactive)
Hs-578T
  GI50: 12.3 µM (inactive)
PC-3
  GI50: 16.1 µM (inactive)
HT-29
  GI50: 21.9 µM (inactive)
SK-MEL-28
  GI50: 20.8 µM (inactive)
HL-60
  GI50: 4.45 µM (inactive)
A549
  GI50: 15.9 µM (inactive)
UACC-257
  GI50: 27.5 µM (inactive)
HCT-116
  GI50: 13.1 µM (inactive)
HCT-15
  GI50: 15.6 µM

## Cc1ccc(Nc2nc3ccccc3c(=O)n2N)cc1
M14
  GI50: > 100 µM (inactive)
SN12C
  GI50: > 100 µM (inactive)
RPMI-8226
  GI50: > 100 µM (inactive)
MDA-MB-435
  GI50: > 100 µM (inactive)
NCI-H23
  GI50: > 100 µM (inactive)
NCI-H460
  GI50: > 100 µM (inactive)
MOLT-4
  GI50: > 100 µM (inactive)
T47D
  GI50: > 100 µM (inactive)
SNB-75
  GI50: 75 µM (inactive)
KM12
  GI50: > 100 µM (inactive)
SR
  GI50: > 100 µM (inactive)
OVCAR-5
  GI50: > 100 µM (inactive)
MDA-MB-231
  GI50: > 100 µM (inactive)
SW-620
  GI50: > 100 µM (inactive)
IGROV-1
  GI50: 88.3 µM (inactive)
SNB-19
  GI50: > 100 µM (inactive)
EKVX
  GI50: > 100 µM (inactive)
UACC-62
  GI50: > 100 µM (inactive)
LOX IMVI
  GI50: > 100 µM (inactive)
NCI/ADR-RES
  GI50: > 100 µM (inactive)
NCI-H522
  GI50: > 100 µM (inactive)
HCC 2998
  GI50: > 100 µM (inactive)
UO-31
  GI50: > 100 µM (inactive)
ACHN
  GI50: > 100 µM (inactive)
HOP-92
  GI50: > 100 µM (inactive)
HOP-62
  GI50: > 100 µM (inactive)
U-251
  GI50: > 100 µM (inactive)
CAKI-1
  GI50: > 100 µM (inactive)
SF-539
  GI50: > 100 µM (inactive)
TK-10
  GI50: > 100 µM (inactive)
SK-MEL-5
  GI50: > 100 µM (inactive)
MCF7
  GI50: > 100 µM (inactive)
SF-268
  GI50: > 100 µM (inactive)
SK-OV-3
  GI50: > 100 µM (inactive)
786-0
  GI50: > 100 µM (inactive)
SF-295
  GI50: > 100 µM (inactive)
CCRF-CEM
  GI50: > 100 µM (inactive)
BT-549
  GI50: > 100 µM (inactive)
COLO 205
  GI50: > 100 µM (inactive)
RXF 393
  GI50: > 100 µM (inactive)
Malme-3M
  GI50: > 100 µM (inactive)
OVCAR-3
  GI50: > 100 µM (inactive)
OVCAR-8
  GI50: > 100 µM (inactive)
DU-145
  GI50: > 100 µM (inactive)
NCI-H226
  GI50: > 100 µM (inactive)
MDA-N
  GI50: > 100 µM (inactive)
Hs-578T
  GI50: > 100 µM (inactive)
PC-3
  GI50: > 100 µM (inactive)
HT-29
  GI50: 78.2 µM (inactive)
SK-MEL-28
  GI50: > 100 µM (inactive)
HL-60
  GI50: > 100 µM (inactive)
K562
  GI50: > 100 µM (inactive)
A549
  GI50: > 100 µM (inactive)
OVCAR-4
  GI50: > 100 µM (inactive)
SK-MEL-2
  GI50: > 100 µM (inactive)
UACC-257
  GI50: > 100 µM (inactive)
HCT-116
  GI50: > 100 µM (inactive)
HCT-15
  GI50: > 100 µM
